Measurements published in the supplement of paper PMC10307832.

Assays:
Test in all cases: relative viability (nuclei count vs DMSO), 5 days (fraction); higher = more cells survive
HCC-78 = system: HCC-78
Summary of the method: (§1)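 A single step with final 0.05% Triton X-100, 1% formaldehyde and 1 ug/ml Hoechst fixed the cells and stained nuclei 5 days after treatment. Lung cancer cell lines in 1536-well plates had been treated by pin tool the day after seeding with one drug alone or a fixed anchor-drug dose plus five library-drug doses (not always all listed) in √10 steps, and nuclei were counted on 4× images. Relative viability is the ratio of nuclei in treated wells to nuclei in vehicle wells, taken as the median of duplicate plates.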

BEN = system: BEN
Summary of the method: as §1

LK-2 = system: LK-2
Summary of the method: as §1

PC-3 [JPC-3] = system: PC-3 [JPC-3]
Summary of the method: as §1

NCI-H358 = system: NCI-H358
Summary of the method: as §1

NCI-H596 = system: NCI-H596
Summary of the method: as §1

NCI-H1944 = system: NCI-H1944
Summary of the method: as §1

NCI-H650 = system: NCI-H650
Summary of the method: as §1

LXF-289 = system: LXF-289
Summary of the method: as §1

NCI-H838 = system: NCI-H838
Summary of the method: as §1

NCI-H661 = system: NCI-H661
Summary of the method: as §1

NCI-H1651 = system: NCI-H1651
Summary of the method: as §1

NCI-H1975 = system: NCI-H1975
Summary of the method: as §1

NCI-H1666 = system: NCI-H1666
Summary of the method: as §1

NCI-H2087 = system: NCI-H2087
Summary of the method: as §1

LU99A = system: LU99A
Summary of the method: as §1

LC-2-ad = system: LC-2-ad
Summary of the method: as §1

SK-MES-1 = system: SK-MES-1
Summary of the method: as §1

NCI-H1355 = system: NCI-H1355
Summary of the method: as §1

LCLC-97TM1 = system: LCLC-97TM1
Summary of the method: as §1

Q: What does the source list for `CC(=O)O[C@@]12CO[C@@H]1C[C@H](O)[C@@]1(C)C(=O)[C@H](O)C3=C(C)[C@@H](OC(=O)[C@H](O)[C@@H](NC(=O)OC(C)(C)C)c4ccccc4)C[C@@](O)([C@@H](OC(=O)c4ccccc4)[C@H]21)C3(C)C` [Docetaxel] + C[C@]1(O)C[C@@H](c2nc(-c3ccc4ccc(-c5ccccc5)nc4c3)c3c(N)nccn32)C1 [Linsitinib] (partner 1 µM)?
A: relative viability (HCC-78; first compound 0.0002 µM): 0.469; relative viability (HCC-78; first compound 0.000632 µM): 0.429; relative viability (HCC-78; first compound 0.002 µM): 0.339; relative viability (HCC-78; first compound 0.006325 µM): 0.284; relative viability (HCC-78; first compound 0.02 µM): 0.222; relative viability (BEN; first compound 0.0002 µM): 0.827; relative viability (BEN; first compound 0.000632 µM): 0.812; relative viability (BEN; first compound 0.002 µM): 0.473; relative viability (BEN; first compound 0.006325 µM): 0.246; relative viability (BEN; first compound 0.02 µM): 0.189; relative viability (LK-2; first compound 0.0002 µM): 0.534; relative viability (LK-2; first compound 0.000632 µM): 0.445; relative viability (LK-2; first compound 0.002 µM): 0.154; relative viability (LK-2; first compound 0.006325 µM): 0.151; relative viability (LK-2; first compound 0.02 µM): 0.156; relative viability (PC-3 [JPC-3]; first compound 0.0002 µM): 0.983; relative viability (PC-3 [JPC-3]; first compound 0.000632 µM): 0.96; relative viability (PC-3 [JPC-3]; first compound 0.002 µM): 0.863; relative viability (PC-3 [JPC-3]; first compound 0.006325 µM): 0.37; relative viability (PC-3 [JPC-3]; first compound 0.02 µM): 0.184; relative viability (NCI-H358; first compound 0.0002 µM): 0.63; relative viability (NCI-H358; first compound 0.000632 µM): 0.371; relative viability (NCI-H358; first compound 0.002 µM): 0.206; relative viability (NCI-H358; first compound 0.02 µM): 0.136; relative viability (NCI-H596; first compound 0.0002 µM): 1.02; relative viability (NCI-H596; first compound 0.000632 µM): 0.953; relative viability (NCI-H596; first compound 0.002 µM): 0.754; relative viability (NCI-H596; first compound 0.006325 µM): 0.761; relative viability (NCI-H596; first compound 0.02 µM): 0.437; relative viability (NCI-H1944; first compound 0.0002 µM): 1.11; relative viability (NCI-H1944; first compound 0.000632 µM): 1.13; relative viability (NCI-H1944; first compound 0.002 µM): 1.18; relative viability (NCI-H1944; first compound 0.006325 µM): 0.349; relative viability (NCI-H1944; first compound 0.02 µM): 0.208; relative viability (NCI-H650; first compound 0.0002 µM): 0.657; relative viability (NCI-H650; first compound 0.000632 µM): 0.341; relative viability (NCI-H650; first compound 0.002 µM): 0.312; relative viability (NCI-H650; first compound 0.006325 µM): 0.255; relative viability (NCI-H650; first compound 0.02 µM): 0.152; relative viability (LXF-289; first compound 0.0002 µM): 0.989; relative viability (LXF-289; first compound 0.000632 µM): 0.745; relative viability (LXF-289; first compound 0.002 µM): 0.628; relative viability (LXF-289; first compound 0.006325 µM): 0.144; relative viability (LXF-289; first compound 0.02 µM): 0.106; relative viability (NCI-H838; first compound 0.0002 µM): 0.98; relative viability (NCI-H838; first compound 0.000632 µM): 1.1; relative viability (NCI-H838; first compound 0.002 µM): 0.247; relative viability (NCI-H838; first compound 0.006325 µM): 0.166; relative viability (NCI-H838; first compound 0.02 µM): 0.145; relative viability (NCI-H661; first compound 0.0002 µM): 0.593; relative viability (NCI-H661; first compound 0.000632 µM): 0.683; relative viability (NCI-H661; first compound 0.002 µM): 0.45; relative viability (NCI-H661; first compound 0.006325 µM): 0.449; relative viability (NCI-H661; first compound 0.02 µM): 0.261; relative viability (NCI-H1651; first compound 0.0002 µM): 0.876; relative viability (NCI-H1651; first compound 0.000632 µM): 0.746; relative viability (NCI-H1651; first compound 0.002 µM): 0.229; relative viability (NCI-H1651; first compound 0.006325 µM): 0.112; relative viability (NCI-H1651; first compound 0.02 µM): 0.117; relative viability (NCI-H1975; first compound 0.0002 µM): 0.861; relative viability (NCI-H1975; first compound 0.000632 µM): 0.962; relative viability (NCI-H1975; first compound 0.002 µM): 0.309; relative viability (NCI-H1975; first compound 0.006325 µM): 0.189; relative viability (NCI-H1975; first compound 0.02 µM): 0.161; relative viability (NCI-H1666; first compound 0.0002 µM): 0.712; relative viability (NCI-H1666; first compound 0.000632 µM): 0.404; relative viability (NCI-H1666; first compound 0.002 µM): 0.383; relative viability (NCI-H1666; first compound 0.006325 µM): 0.28; relative viability (NCI-H1666; first compound 0.02 µM): 0.211; relative viability (NCI-H2087; first compound 0.0002 µM): 0.848; relative viability (NCI-H2087; first compound 0.000632 µM): 0.68; relative viability (NCI-H2087; first compound 0.002 µM): 0.301; relative viability (NCI-H2087; first compound 0.006325 µM): 0.326; relative viability (NCI-H2087; first compound 0.02 µM): 0.156; relative viability (LU99A; first compound 0.0002 µM): 0.52; relative viability (LU99A; first compound 0.000632 µM): 0.458; relative viability (LU99A; first compound 0.002 µM): 0.356; relative viability (LU99A; first compound 0.006325 µM): 0.262; relative viability (LU99A; first compound 0.02 µM): 0.169; relative viability (LC-2-ad; first compound 0.0002 µM): 0.714; relative viability (LC-2-ad; first compound 0.000632 µM): 0.223; relative viability (LC-2-ad; first compound 0.002 µM): 0.185; relative viability (LC-2-ad; first compound 0.006325 µM): 0.159; relative viability (LC-2-ad; first compound 0.02 µM): 0.112; relative viability (SK-MES-1; first compound 0.0002 µM): 1.05; relative viability (SK-MES-1; first compound 0.000632 µM): 0.967; relative viability (SK-MES-1; first compound 0.002 µM): 0.634; relative viability (SK-MES-1; first compound 0.006325 µM): 0.26; relative viability (SK-MES-1; first compound 0.02 µM): 0.177; relative viability (NCI-H1355; first compound 0.0002 µM): 0.75; relative viability (NCI-H1355; first compound 0.000632 µM): 0.771; relative viability (NCI-H1355; first compound 0.002 µM): 0.467; relative viability (NCI-H1355; first compound 0.006325 µM): 0.297; relative viability (NCI-H1355; first compound 0.02 µM): 0.188; relative viability (LCLC-97TM1; first compound 0.000632 µM): 0.153; relative viability (LCLC-97TM1; first compound 0.002 µM): 0.155; relative viability (LCLC-97TM1; first compound 0.006325 µM): 0.144; relative viability (LCLC-97TM1; first compound 0.02 µM): 0.112
